Where a name gives a salt, the structure may show the parent alone.

Here are results for 24 molecules from US20090270450A1, “CHEMICAL COMPOUNDS” (ASTRAZENECA AB, priority 2006, published 2009).

The first test concerns the target T1, His-tagged kinase domain of CSF-1R (amino acids 568-912) (Homo sapiens, UniProt P07333).
T1 construct: The His-tagged kinase domain of CSF-1R (i.e., amino acids 568-912, GeneBank ID NM_005211); His; made in house; host or cells: baculovirus infected SF+Express insect cells
T1 sequence (P07333 568-912): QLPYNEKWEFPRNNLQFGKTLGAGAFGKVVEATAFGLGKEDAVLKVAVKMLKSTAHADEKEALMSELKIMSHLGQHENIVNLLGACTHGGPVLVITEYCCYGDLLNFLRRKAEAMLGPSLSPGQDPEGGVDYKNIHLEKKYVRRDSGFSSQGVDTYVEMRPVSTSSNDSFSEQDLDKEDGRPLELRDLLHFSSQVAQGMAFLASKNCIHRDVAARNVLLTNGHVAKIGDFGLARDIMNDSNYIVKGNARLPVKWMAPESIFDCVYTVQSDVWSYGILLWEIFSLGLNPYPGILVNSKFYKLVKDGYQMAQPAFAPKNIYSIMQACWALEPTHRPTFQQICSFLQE
Kind of test: Assay 1: CSF-1R in vitro AlphaScreen assay. In kind it is biochemical. The settings on record: phosphorylation of biotinylated pEY substrate; 0.57 nM CSF-1R, 90 μM ATP. As for the experimental part: Assay 1: CSF-1R in Vitro AlphaScreen Assay
Activity of purified CSF-1R was determined in vitro using an Amplified Luminescent Proximity Homogeneous Assay (ALPHA)(Perkin Elmer), which measures phosphorylation of the CSF-1R substrate, biotinylated poly-glutamine-tyrosine peptide (PEY-HTRF CisBio 61GT0BLD), as described below. The His-tagged kinase domain of CSF-1R (i.e., amino acids 568-912, GeneBank ID NM_005211; (see page 25 lines 13-19 of WO 2006/067445 for the sequence listing)) was purified from baculovirus infected SF+Express insect cells (1.4×10^6 cells/ml), French pressed and chromatographed through subsequent Qiagen Ni-NTA, Superflow Mono Q HR 10/10, and Superdex 200 SEC columns. Typical yield was 245 μg/l of cell pellet at >95% purity.
The phosphorylation of the CSF-1R substrate in the presence and absence of the compound of interest was determined. Briefly, 0.57 nM of purified CSF-1R, 5 nM pEY substrate, and compound were preincubated in 1× buffer for 30 minutes at 25° C. Reactions were initiated with addition of 90 μM adenosine triphosphate (ATP) in 1× buffer and incubated at 25° C. for 60 minutes and reactions stopped by addition of 5 μl of detection mix consisting of 136 mM NaCl, 102 mM ethylenediamine tetraacetic acid, 1.65 mg/ml BSA, 40 ug/ml Streptavidin donor beads (Perkin Elmer 6760002), 40 ug/ml pTyr100 acceptor beads (Perkin Elmer 6760620). Plates were incubated at 25° C. for 18 hours in the dark. Phosphorylated substrate was detected by an EnVision plate reader (Perkin Elmer) 680 nm excitation, 520-620 nm emission. Data was graphed and IC50s calculated using Excel Fit (Microsoft).
`CCOc1cc2ncc(C(N)=O)c(Nc3ccc(F)cc3F)c2cc1C1CCN(C(C)C)CC1` [Example 46, 4-[(2,4-Difluorophenyl)amino]-7-ethoxy-6-(1-isopropylpiperidin-4-yl)quinoline-3-carboxamide] returned an IC50 of 18 nM. That is a double-digit nanomolar value. As to `CCOc1cc2ncc(C(N)=O)c(Nc3ccc(F)cc3F)c2cc1C1=CCN(C(=O)OC(C)(C)C)CC1` [Example 38, tert-Butyl 4-{3-(aminocarbonyl)-4-[(2,4-difluorophenyl)amino]-7-ethoxyquinolin-6-yl}-3,6-dihydropyridine-1(2H)-carboxylate], inhibition was half-maximal at 660 nM (IC50).

`COc1cc2ncc(C(N)=O)c(Nc3ccc(Cl)c(Cl)c3)c2cc1CCCN1CCCCC1` [Example 12, 4-[(3,4-Dichlorophenyl)amino]-7-methoxy-6-(3-piperidin-1-ylpropyl)quinoline-3-carboxamide] gave an IC50 of 4 nM. On the same count and under the same terms, the same measure for `COc1cc2ncc(C(N)=O)c(Nc3ccc(F)cc3F)c2cc1CCCN(C)C` [Example 9, 4-[(2,4-Difluorophenyl)amino]-6-[3-(dimethylamino)propyl]-7-methoxyquinoline-3-carboxamide]: 3 nM; for `COc1cc2ncc(C(N)=O)c(Nc3ccc(F)cc3F)c2cc1C1CCN(C)CC1` [Example 51, 4-[(2,4-Difluorophenyl)amino]-7-methoxy-6-(1-methylpiperidin-4-yl)quinoline-3-carboxamide]: 10 nM. Molecule `COc1cc2ncc(C(N)=O)c(Nc3cccc(Cl)c3F)c2cc1CCCO` [Example 18, 4-[(3-Chloro-2-fluorophenyl)amino]-6-(3-hydroxypropyl)-7-methoxyquinoline-3-carboxamide] returned an IC50 of under 3 nM.

`CCOc1cc2ncc(C(N)=O)c(Nc3ccc(F)c(Cl)c3)c2cc1CCCO` [Example 25, 4-[(3-Chloro-4-fluorophenyl)amino]-7-ethoxy-6-(3-hydroxypropyl)quinoline-3-carboxamide] displayed an IC50 of 7 nM. This lies in the single-digit nanomolar range. Regarding `COc1cc2ncc(C(N)=O)c(Nc3cccc(Cl)c3Cl)c2cc1CCCO` [Example 19, 4-[(2,3-Dichlorophenyl)amino]-6-(3-hydroxypropyl)-7-methoxyquinoline-3-carboxamide], the IC50 was 8 nM.

With `CCOc1cc2ncc(C(N)=O)c(Nc3ccc(F)cc3F)c2cc1-c1cncnc1` [Example 34, 4-[(2,4-Difluorophenyl)amino]-7-ethoxy-6-pyrimidin-5-ylquinoline-3-carboxamide], the IC50 amounted to 25 nM. This IC50 lies about 3.1-fold higher than the previous one.

The molecule `CCc1ccc(Nc2c(C(N)=O)cnc3cc(OC)c(CCCO)cc23)cc1` [Example 20, 4-[(4-Ethylphenyl)amino]-6-(3-hydroxypropyl)-7-methoxyquinoline-3-carboxamide] returned an IC50 of 38 nM. On the same count and under the same terms, the same measure for `CCc1ccc(Nc2c(C(N)=O)cnc3cc(OC)c(C#CCO)cc23)cc1` [Example 21, 4-[(4-Ethylphenyl)amino]-6-(3-hydroxyprop-1-yn-1-yl)-7-methoxyquinoline-3-carboxamide]: 18 nM. On the same count and under the same terms, next, `CCOc1cc2ncc(C(N)=O)c(Nc3cccc(Cl)c3F)c2cc1CCCO` [Example 3, 4-[(3-Chloro-2-fluorophenyl)amino]-7-ethoxy-6-(3-hydroxypropyl)quinoline-3-carboxamide]: 5 nM; `CCOc1cc2ncc(C(N)=O)c(Nc3ccc(C)cc3F)c2cc1C1CCN(C)CC1` [Example 42, 7-Ethoxy-4-[(2-fluoro-4-methylphenyl)amino]-6-(1-methylpiperidin-4-yl)quinoline-3-carboxamide]: 5 nM.

Take `COc1cc2ncc(C(N)=O)c(Nc3ccc(Cl)c(Cl)c3)c2cc1CCCN` [Example 1, 6-(3-Aminopropyl)-4-[(3,4-dichlorophenyl)amino]-7-methoxyquinoline-3-carboxamide]: the IC50 stood at 2 nM. Compared with the last molecule, the IC50 is about 2.5-fold lower. Still for that read-out and setting: next, `CCOc1cc2ncc(C(N)=O)c(Nc3ccc(F)cc3F)c2cc1-c1ccncc1` [Example 35, 4-[(2,4-Difluorophenyl)amino]-7-ethoxy-6-pyridin-4-ylquinoline-3-carboxamide]: 61 nM.

`CCOc1cc2ncc(C(N)=O)c(Nc3ccc(F)cc3F)c2cc1-c1cnn(CC(C)C)c1` [Example 37, 4-[(2,4-Difluorophenyl)amino]-7-ethoxy-6-(1-isobutyl-1H-pyrazol-4-yl)quinoline-3-carboxamide] yielded an IC50 of 440 nM. Molecule `COc1cc2ncc(C(N)=O)c(Nc3ccc(C)cc3F)c2cc1C1CCN(C)CC1` [Example 49, 4-[(2-Fluoro-4-methylphenyl)amino]-7-methoxy-6-(1-methylpiperidin-4-yl)quinoline-3-carboxamide] had an IC50 of 7 nM.

For a further test, the target named is T1, His-tagged kinase domain of CSF-1R (amino acids 568-912). The test is described as follows: Assay 2: CSF1R in-vitro AlphaScreen assay. In kind it is biochemical. The conditions noted are these: phosphorylation of biotinylated pEY substrate; 0.46 nM CSF-1R, 12 mM ATP mix. As for the experimental part: Assay 2: CSF1R in-Vitro AlphaScreen Assay
Activity of purified CSF-1R was determined in-vitro using an Amplified Luminescent Proximity Homogeneous Assay (ALPHA) (Perkin Elmer, Mass.), which measures phosphorylation of CSF-1R substrate, biotinylated poly-glutamine-tyrosine peptide (pEY-HTRF CisBio 61GT0BLD), as described below. The His-tagged kinase domain of CSF-1R (i.e., amino acids 568-912, GeneBank ID NM_005211) was purified from baculovirus infected SF+Express insect cells (1.4×10^6 cells/ml), French pressed and chromatographed through subsequent QIAgen Ni-NTA, Superflow Mono Q HR 10/10, and Superdex 200 SEC columns. Typical yield was 322 ug/l of cell pellet at >95% purity. The phosphorylation of the CSF-1R substrate in the presence and absence of the compound of interest was determined. Briefly, 5 ul of Enzyme/Substrate/adenosine triphosphate (ATP) mix consisting of 0.46 nM of purified CSF-1R, 12 nM pEY substrate, and 12 mM ATP in 1.2× buffer was preincubated with 2 ul of compound for 20 minutes at 25° C. Reactions were initiated with 5 ul of Metal mix consisting of 24 mM MgCl2 in 1.2× buffer and incubated at 25° C. for 90 minutes and reactions were stopped by addition of 5 ul of Detection mix consisting of 20 mM HEPES, 102 mM ethylenediamine tetraacetic acid, 1.65 mg/ml BSA, 136 mM NaCl, 40 ug/ml Streptavidin donor beads (Perkin Elmer, Mass., Catalog #6760002), and 40 ug/ml phosphotyrosine-specific antibody coated acceptor beads (Perkin Elmer, Mass., Catalog #6760620). Plates were incubated at 25° C. for 18 hours in the dark. Phosphorylated substrate was detected by an EnVision plate reader (Perkin Elmer) 680 nm excitation, 520-620 nm emission. Data was graphed and IC50s calculated using Excel Fit (Microsoft). […] For example the following results were obtained in an assay substantially similar to one or other of the assays described hereinabove: […]
Molecule `CCOc1cc2ncc(C(N)=O)c(Nc3ccc(F)cc3F)c2cc1C1CCN(C(C)C)CC1` [Example 46, 4-[(2,4-Difluorophenyl)amino]-7-ethoxy-6-(1-isopropylpiperidin-4-yl)quinoline-3-carboxamide] had a half-inhibitory concentration (IC50) of 22 nM. Same read-out and setting: next, `COc1cc2ncc(C(N)=O)c(Nc3ccc(F)cc3F)c2cc1C1CCN(C(C)C)CC1` [Example 53, 4-[(2,4-Difluorophenyl)amino]-6-(1-isopropylpiperidin-4-yl)-7-methoxyquinoline-3-carboxamide]: 32 nM; `COc1cc2ncc(C(N)=O)c(Nc3cccc(Cl)c3F)c2cc1C1CCN(C(C)C)CC1` [Example 54, 4-[(3-Chloro-2-fluorophenyl)amino]-6-(1-isopropylpiperidin-4-yl)-7-methoxyquinoline-3-carboxamide]: 8 nM; `CCOc1cc2ncc(C(N)=O)c(Nc3ccc(C)cc3F)c2cc1C1CCN(C(C)=O)CC1` [Example 56, 6-(1-Acetylpiperidin-4-yl)-7-ethoxy-4-[(2-fluoro-4-methylphenyl)amino]quinoline-3-carboxamide]: 30 nM. The same measure, in the same setting: the same measure for `CCOc1cc2ncc(C(N)=O)c(Nc3ccc(C)cc3F)c2cc1C1CCN(C(=O)[C@@H](C)O)CC1` [Example 58, 7-Ethoxy-4-[(2-fluoro-4-methylphenyl)amino]-6-{1-[(2R)-2-hydroxypropanoyl]piperidin-4-yl}quinoline-3-carboxamide]: 52 nM; for `COc1cc2ncc(C(N)=O)c(Nc3ccc(C)cc3F)c2cc1C1CCN(C(C)C)CC1` [Example 52, 4-[(2-Fluoro-4-methylphenyl)amino]-6-(1-isopropylpiperidin-4-yl)-7-methoxyquinoline-3-carboxamide]: 14 nM. Same read-out and setting: the same measure for `CCOc1cc2ncc(C(N)=O)c(Nc3ccc(C)cc3F)c2cc1C1CCN(C(=O)CCOC)CC1` [Example 57, 7-Ethoxy-4-[(2-fluoro-4-methylphenyl)amino]-6-[1-(3-methoxypropanoyl)piperidin-4-yl]quinoline-3-carboxamide]: 71 nM; for `COc1cc2ncc(C(N)=O)c(Nc3ccc(C)cc3F)c2cc1C1CCN(CCO)CC1` [Example 60, 4-[(2-Fluoro-4-methylphenyl)amino]-6-[1-(2-hydroxyethyl)piperidin-4-yl]-7-methoxyquinoline-3-carboxamide hydrochloride]: 4 nM.
